Reference: patent US4681895A, “Novel guanidinomethylcyclohexanecarboxylic acid compounds and anti-ulcer drug containing the same” (Kanebo, Ltd., priority 1985, dated 1987)

How the values were obtained:
[1] = tested on: indomethacin-induced gastric ulcer; experiment: Activity against indomethacin-induced gastric ulcer; type: in vivo, Male Sprague-Dawley rats; settings: Rattus norvegicus; oral, rats, 15 min before indomethacin 30 mg/kg subcutaneously; killed 5 hours after; read-out: ED50, Anti-indomethacin-induced ulcer
Method: (§1) The same test compounds as used in Experiment 1 were used.
The experiment was carried out by a modified method of that of Okabe et al. [cf. Dig. Dis. Sci., 28, 1034 (1983)].
Male Sprague-Dawley rats weighing 180-200 g (8 week old), 6-8 per group, were fasted for 24 hours and administered orally with each test compound which was suspended in 1% arabic gum aqueous solution. After 15 minutes, indomethacin (in a solution in 3% sodium bicarbonate solution) was given subcutaneously to the rats at a dose of 30 mg/kg. The animals were killed by ether inhalation 5 hours after receiving of indomethacin. The stomach of each rat was removed, inflated by injecting 12 ml of 1% formalin, containing 0.1% pontamine sky blue, and immersed in 1% formalin for 15 minutes. Afterward, the mean ulcer index and inhibitory ratio were calculated by the same method as in Experiment 1, and then ED50 was calculated by dose response curve.

[2] = tested on: ethanol-induced gastric ulcer; experiment: Activity against ethanol-induced gastric ulcer; type: in vivo, Male Sprague-Dawley rats; settings: Rattus norvegicus; oral, rats, 30 min before 99.5% ethanol 1 ml orally; killed 1 hour after; read-out: ED50, Anti-ethanol-induced ulcer
Method: as §1
The experiment was carried out according to the method of Robert et al. [cf. Gastroenterology, 77, 433 (1979)].
Male Sprague-Dawley rats weighing 180-200 g (8 week old), 6-8 per group, were fasted for 24 hours and administered orally with each test compound which was suspended in 1% arabic gum aqueous solution. After 30 minutes, 99.5% ethanol (as a necrotizing agent) was given orally to the rats in a volume of 1 ml. The animals were killed by ether inhalation 1 hour after receiving of ethanol. The stomach of each rat was removed, inflated by injecting 12 ml of 1 % formalin, and immersed in 1% formalin for 15 minutes. Afterward, the mean ulcer index and inhibitory ratio were calculated by the same method as in Experiment 1, and then the ED50 was calculated by dose-response curve.

[3] = tested on: stress-induced gastric ulcer; experiment: Activity against stress-induced gastric ulcer; type: in vivo, Male Sprague-Dawley rats; settings: Rattus norvegicus; oral, rats, 15 min before stress cage in 23° C. water bath for 17 hours; read-out: ED50, Anti-stress-induced ulcer
Method: The experiment was carried out by a modified method of that of Takagi and Okabe [cf. Jap. J. Pharmacol., 18, 9 (1968)]. Male Sprague-Dawley rats weighing 180-200 g (8 week old), 6-8 per group, were fasted for 24 hours and administered orally with each test compound which was suspended in 1% arabic gum aqueous solution. After 15 minutes, the animals were placed in a stress cage and immerse vertically to the level of the xiphoid process in a water bath kept at 23° C. for 17 hours. The animals were killed by ether inhalation. The stomach of each rat was removed, inflated by injecting 12 ml of 1% formalin, and immersed in 1% formalin for 15 minutes. The stomach was then incised along the greater curvature and examined for lesions in the glandular portion under a dissecting microscope. The length (mm) of a ulcer was totalled on each animal and it was indicated as the ulcer index. The mean ulcer index (m) in each test compound-treated group was calculated. The control animals received the same procedure without administering of test compound and the mean ulcer index (l) was calculated. Inhibitory ratio of test compound is expressed as follows. Inhibitory ratio (%)=(1-m/l)×100 wherein l is mean ulcer index in control group, and m is mean ulcer index in test compound-treated group. The anti-ulcer activity of test compound (ED50) was calculated by dose-response curve.

Male ddY mice = experiment: Test of acute toxity [minimum lethal dose (MLD)]; type: in vivo; settings: oral, mice fasted 17 hours, observed for 7 days
Method: as §1
Male ddY mice weighing 20-22 g (4 week old), 5 per group, were fasted for 17 hours and administered orally with each test compound which was suspended in 1% arabic gum aqueous solution.

peptic ulcers = settings: disclosed in Japanese Patent First Publications; cited from earlier work

In the case of `Cl.N=C(N)NC[C@H]1CC[C@H](C(=O)Nc2ccccc2C(=O)O)CC1.O` [C, N-(o-Carboxyphenyl)-trans-4-guanidinomethylcyclohexanecarboxamide hydrochloride monohydrate], the ED50 [1] is reported as 37 mg/kg, the ED50 [2] is reported as 41 mg/kg and the ED50 [3] is reported as 114 mg/kg. For the same compound, the “MLD (acute toxicity)” value (Male ddY mice) was > 3,000 mg/kg.

`CCOC(=O)c1ccccc1NC(=O)[C@H]1CC[C@H](CNC(=N)N)CC1.Cl.O` [A, N-(o-Ethoxycarbonylphenyl)-trans-4-guanidinomethylcyclohexanecarboxamide hydrochloride monohydrate] gave an ED50 [1] of 33 mg/kg, an ED50 [2] of 36 mg/kg and an ED50 [3] of 108 mg/kg. The “MLD (acute toxicity)” value (Male ddY mice) was > 3,000 mg/kg.

`COC(=O)c1ccccc1NC(=O)[C@H]1CC[C@H](CNC(=N)N)CC1.Cl.O` [B, N-(o-Methoxycarbonylphenyl)-trans-4-guanidinomethylcyclohexanecarboxamide hydrochloride monohydrate] showed an ED50 [1] of 40 mg/kg, an ED50 [2] of 42 mg/kg and an ED50 [3] of 118 mg/kg. The “MLD (acute toxicity)” value (Male ddY mice) was > 3,000 mg/kg.

In the case of `Cl.N=C(N)NC[C@H]1CC[C@H](C(=O)Nc2ccccc2)CC1` [Y, N-Phenyl-trans-4-guanidinomethylcyclohexanecarboxamide hydrochloride, reference compound], the ED50 [1] is given as 86 mg/kg, the “anti-ulcer activity, in words” value (peptic ulcers) is given as “shows an anti-ulcer activity” and the ED50 [2] is given as 199 mg/kg. The ED50 [3] was 135 mg/kg and the “MLD (acute toxicity)” value (Male ddY mice) was < 1,000 mg/kg.

In the case of `Cl.N=C(N)NC[C@H]1CC[C@H](C(=O)Oc2ccccc2C(=O)OCc2ccccc2)CC1` [X, Trans-4-guanidinomethylcyclohexanecarboxylic acid o-benzyloxycarbonylphenylester hydrochloride, reference compound], the ED50 [1] is given as 103 mg/kg, the “anti-ulcer activity, in words” value (peptic ulcers) is given as “shows an anti-ulcer activity” and the ED50 [2] is given as 108 mg/kg. The ED50 [3] was 376 mg/kg and the “MLD (acute toxicity)” value (Male ddY mice) was > 3,000 mg/kg.
